Patent publication US8852953B2, “Immunodetection and quantification of pyrazolopyrimidine sedatives” (Randox Laboratories Ltd., priority 2009, dated 2014)
In brackets after ≈: the same amount, converted by molar mass.

Tests used:
[1] = system: antiserum raised to Immunogen A (Hapten-A-BTG); experiment: Competitive ELISA with antiserum raised to Immunogen A and Conjugate A (Hapten-A-HRP) as detection reagent; format: binding, sheep
Protocol: Aqueous solutions of the immunogens prepared in Examples 6 and 12 were formulated with Freund's Complete Adjuvant (FCA) to form emulsions of Immunogen A and Immunogen [[B]]C in 50% (v/v) FCA. Individual sheep were immunised with the emulsions of Immunogen A and Immunogen C (primary immunisations), 0.25 ml being subcutaneously injected in the flank of each animal. Subsequent boosts of emulsified immunogens in 50% (v/v) Freund's Incomplete Adjuvant (FIA) were at monthly intervals for 1 year. Blood sampling took place 7-14 days after each boost. Each sample was processed to produce antisera which were further purified by caprylic acid and ammonium sulfate precipitated to yield an immunoglobulin G (IgG) fraction. The IgG fraction was evaluated by competitive ELISA microtitre plate assay, as described in Example 15.
The wells of an enhanced binding 96 well polystyrene microtitre plate were coated with the IgG fraction of the antiserum raised to Immunogen A Hapten A-BTG diluted in 10 mM Tris, pH8.5 (125 μl/well). The appropriate antibody coating dilution was determined using standard ELISA chequerboard techniques. The plate was incubated for 2 hours at 37° C., washed 4 times with Tris buffered saline containing Tween 20 (TBST) and tapped dry. […] 75 μl of Conjugate A (Hapten A-HRP), diluted in Tris buffer containing EDTA, D-mannitol, sucrose, thimerosal and BSA, was added to each of the wells. The appropriate dilution of conjugate was also determined using standard ELISA chequerboard techniques. The plate was incubated at 25° C. for 1 hour. The excess unbound conjugate was removed by washing 6 times over a 10 minute period with TBST. 125 μl of tetramethylbenzedine (TMB) substrate solution was added to each well of the plate and incubated for 20 minutes in the dark at room temperature. The reaction was stopped by the addition of 125 μl of 0.2M H2SO4 to each well. The absorbance was then measured at 450 nm using a microtitre plate reader.

[2] = system: antiserum raised to Immunogen C (Hapten-C-BTG); experiment: Competitive ELISA with antiserum raised to Immunogen C and Conjugate C (Hapten-C-HRP) as detection reagent; format: binding, sheep; details: for % CR (percentage cross-reactivity based on specificity to Zaleplon) / IC50 (standard concentration which produces 50% B/B0): antiserum to Immunogen C, Conjugate C
[3] = antiserum to Immunogen A, Conjugate A
[4] = standard concentration 0.156 ng/ml
[5] = standard concentration 0.313 ng/ml
[6] = standard concentration 0.625 ng/ml
[7] = standard concentration 1.250 ng/ml
[8] = standard concentration 2.500 ng/ml
[9] = standard concentration 5.000 ng/ml
[10] = standard concentration 10.000 ng/ml
[11] = standard concentration 0.025 ng/ml
[12] = standard concentration 0.050 ng/ml
[13] = standard concentration 0.100 ng/ml
[14] = standard concentration 0.200 ng/ml
[15] = standard concentration 0.400 ng/ml
[16] = standard concentration 0.800 ng/ml
[17] = standard concentration 1.600 ng/ml

SMILES	% CR (percentage cross-reactivity based on specificity to Zaleplon) [1, 3] [%]	% CR (percentage cross-reactivity based on specificity to Zaleplon) [2] [%]	IC50 (standard concentration which produces 50% B/B0) [2] [ng/mL]	% B/B0 [2, 4] [%]	A450 [2, 4]	% B/B0 [2, 5] [%]	A450 [2, 5]	% B/B0 [2, 6] [%]	A450 [2, 6]	% B/B0 [2, 7] [%]	A450 [2, 7]	% B/B0 [2, 8] [%]	A450 [2, 8]	% B/B0 [2, 9] [%]	A450 [2, 9]	% B/B0 [2, 10] [%]	A450 [2, 10]	also measured
CC(=O)N(C)c1cccc(-c2ccnc3c(C(=O)c4cccs4)cnn23)c1 [Indiplon, indiplon]	<0.63	22	1.967 (≈ 5.23 nM)	84	1.831	77	1.664	67	1.455	57	1.234	46	1.006	36	0.778	27	0.579	IC50 (standard concentration which produces 50% B/B0) [1, 3]: >10 ng/mL; % B/B0 [1, 4]: 96%; A450 [1, 4]: 2.063; % B/B0 [1, 5]: 94%; A450 [1, 5]: 2.019; % B/B0 [1, 6]: 93%; A450 [1, 6]: 1.982; % B/B0 [1, 7]: 99%; A450 [1, 7]: 2.112; % B/B0 [1, 8]: 88%; A450 [1, 8]: 1.877; % B/B0 [1, 9]: 91%; A450 [1, 9]: 1.940; % B/B0 [1, 10]: 90%; A450 [1, 10]: 1.931
CCN(C(C)=O)c1cccc(-c2ccnc3c(C#N)cnn23)c1 [Zaleplon, zaleplon]	100	100	0.432 (≈ 1.41 nM)	65	1.487	54	1.236	45	1.021	36	0.825	27	0.610	20	0.457	15	0.337	IC50 of zaleplon-specific antibody ([1]; as stated in the description): 0.063 ng/mL; % B/B0 [1, 11]: 72%; A450 [1, 11]: 1.542; % B/B0 [1, 12]: 55%; A450 [1, 12]: 1.180; % B/B0 [1, 13]: 40%; A450 [1, 13]: 0.860; % B/B0 [1, 14]: 28%; A450 [1, 14]: 0.602; % B/B0 [1, 15]: 19%; A450 [1, 15]: 0.406; % B/B0 [1, 16]: 13%; A450 [1, 16]: 0.286; % B/B0 [1, 17]: 10%; A450 [1, 17]: 0.211
